Results from PubChem BioAssay AID1963828 (Molecular Pharmacology Branch, DTP, NCI, 2024).

Test system: 991263-137-R1-J2-PDC complex spheroid viability
Test: Anticancer human tumor 991263-137-R1-J2-PDC patient-derived colon adenocarcinoma cell line growth inhibition [POLQ]
Details: for IC50: curve of first compound; for viability, T/C: stronger effect = lower value
How it was run: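 Growth inhibition in 3D: complex spheroids (tumor PDC, HUVEC, MSC) treated with POLQ inhibitor combinations; where Cmax unknown, highest tested concentration 10 microM, except SN-38 at 1 microM.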
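Note: spheroids exposed to compounds for 7 days before readout.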
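Throughout, for viability, T/C: 100% = DMSO vehicle control viability.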

With `CC(=O)O[C@H]1C(=O)[C@@]2(C)[C@H]([C@H](OC(=O)c3ccccc3)[C@]3(O)C[C@H](OC(=O)[C@H](O)[C@@H](NC(=O)c4ccccc4)c4ccccc4)C(C)=C1C3(C)C)[C@]1(OC(C)=O)CO[C@@H]1C[C@@H]2O` + COC1C(OC(N)=O)C(O)C(Oc2ccc3c(O)c(NC(=O)c4ccc(O)c(CC=C(C)C)c4)c(=O)oc3c2C)OC1(C)C the IC50 (second compound 0.0316 µM) was > 3000 nM, the IC50 (second compound 0.1 µM) was 1950 nM and the IC50 (second compound 0.316 µM) was 1580 nM. It also gave an IC50 (second compound 1 µM) of 1540 nM, an IC50 (second compound 3.16 µM) of 1850 nM and an IC50 (second compound 10 µM) of 1700 nM. The viability, T/C (second compound 0.0316 µM, first compound 0.00949 µM) was 90%, the viability, T/C (second compound 0.0316 µM, first compound 0.03 µM) was 100% and the viability, T/C (second compound 0.0316 µM, first compound 0.0949 µM) was 75.2%. It also gave a viability, T/C (second compound 0.0316 µM, first compound 0.3 µM) of 54.2%, a viability, T/C (second compound 0.0316 µM, first compound 0.949 µM) of 51.6% and a viability, T/C (second compound 0.0316 µM, first compound 3 µM) of 48.9%. It also gave a viability, T/C (second compound 0.1 µM, first compound 0.00949 µM) of 100%, a viability, T/C (second compound 0.1 µM, first compound 0.03 µM) of 90.3% and a viability, T/C (second compound 0.1 µM, first compound 0.0949 µM) of 78.7%. For the same compound, the viability, T/C (second compound 0.1 µM, first compound 0.3 µM) was 83%, the viability, T/C (second compound 0.1 µM, first compound 0.949 µM) was 58.8% and the viability, T/C (second compound 0.1 µM, first compound 3 µM) was 43%. The viability, T/C (second compound 0.316 µM, first compound 0.00949 µM) was 103%, the viability, T/C (second compound 0.316 µM, first compound 0.03 µM) was 97% and the viability, T/C (second compound 0.316 µM, first compound 0.0949 µM) was 75.5%. For the same compound, the viability, T/C (second compound 0.316 µM, first compound 0.3 µM) was 74.3%, the viability, T/C (second compound 0.316 µM, first compound 0.949 µM) was 50.3% and the viability, T/C (second compound 0.316 µM, first compound 3 µM) was 45.4%. It also gave a viability, T/C (second compound 1 µM, first compound 0.00949 µM) of 93.2%, a viability, T/C (second compound 1 µM, first compound 0.03 µM) of 97.5% and a viability, T/C (second compound 1 µM, first compound 0.0949 µM) of 83.8%. For the same compound, the viability, T/C (second compound 1 µM, first compound 0.3 µM) was 74.1%, the viability, T/C (second compound 1 µM, first compound 0.949 µM) was 55.6% and the viability, T/C (second compound 1 µM, first compound 3 µM) was 42.1%. It also gave a viability, T/C (second compound 3.16 µM, first compound 0.00949 µM) of 96.2%, a viability, T/C (second compound 3.16 µM, first compound 0.03 µM) of 83.5% and a viability, T/C (second compound 3.16 µM, first compound 0.0949 µM) of 81.4%. The viability, T/C (second compound 3.16 µM, first compound 0.3 µM) was 70.6%, the viability, T/C (second compound 3.16 µM, first compound 0.949 µM) was 54.5% and the viability, T/C (second compound 3.16 µM, first compound 3 µM) was 45.7%. It also gave a viability, T/C (second compound 10 µM, first compound 0.00949 µM) of 86.7%, a viability, T/C (second compound 10 µM, first compound 0.03 µM) of 91.2% and a viability, T/C (second compound 10 µM, first compound 0.0949 µM) of 96%. The viability, T/C (second compound 10 µM, first compound 0.3 µM) was 81%, the viability, T/C (second compound 10 µM, first compound 0.949 µM) was 57.1% and the viability, T/C (second compound 10 µM, first compound 3 µM) was 43.4%.
In the case of `CC[C@@]1(O)C(=O)OCc2c1cc1n(c2=O)Cc2cc3c(CN(C)C)c(O)ccc3nc2-1` + COC1C(OC(N)=O)C(O)C(Oc2ccc3c(O)c(NC(=O)c4ccc(O)c(CC=C(C)C)c4)c(=O)oc3c2C)OC1(C)C, the IC50 (second compound 0.0316 µM) is reported as > 100 nM, the IC50 (second compound 0.1 µM) is reported as > 100 nM and the IC50 (second compound 0.316 µM) is reported as > 100 nM. The IC50 (second compound 1 µM) was > 100 nM, the IC50 (second compound 3.16 µM) was > 100 nM and the IC50 (second compound 10 µM) was > 100 nM. It also gave a viability, T/C (second compound 0.0316 µM, first compound 0.000316 µM) of 103%, a viability, T/C (second compound 0.0316 µM, first compound 0.001 µM) of 103% and a viability, T/C (second compound 0.0316 µM, first compound 0.00316 µM) of 106%. It also gave a viability, T/C (second compound 0.0316 µM, first compound 0.01 µM) of 103%, a viability, T/C (second compound 0.0316 µM, first compound 0.0316 µM) of 100% and a viability, T/C (second compound 0.0316 µM, first compound 0.1 µM) of 87.3%. For the same compound, the viability, T/C (second compound 0.1 µM, first compound 0.000316 µM) was 105%, the viability, T/C (second compound 0.1 µM, first compound 0.001 µM) was 125% and the viability, T/C (second compound 0.1 µM, first compound 0.00316 µM) was 98.3%. It also gave a viability, T/C (second compound 0.1 µM, first compound 0.01 µM) of 79.6%, a viability, T/C (second compound 0.1 µM, first compound 0.0316 µM) of 86.4% and a viability, T/C (second compound 0.1 µM, first compound 0.1 µM) of 71.4%. It also gave a viability, T/C (second compound 0.316 µM, first compound 0.000316 µM) of 110%, a viability, T/C (second compound 0.316 µM, first compound 0.001 µM) of 110% and a viability, T/C (second compound 0.316 µM, first compound 0.00316 µM) of 107%. It also gave a viability, T/C (second compound 0.316 µM, first compound 0.01 µM) of 100%, a viability, T/C (second compound 0.316 µM, first compound 0.0316 µM) of 102% and a viability, T/C (second compound 0.316 µM, first compound 0.1 µM) of 84.5%. It also gave a viability, T/C (second compound 1 µM, first compound 0.000316 µM) of 82.4%, a viability, T/C (second compound 1 µM, first compound 0.001 µM) of 106% and a viability, T/C (second compound 1 µM, first compound 0.00316 µM) of 97.7%. The viability, T/C (second compound 1 µM, first compound 0.01 µM) was 93.2%, the viability, T/C (second compound 1 µM, first compound 0.0316 µM) was 75.7% and the viability, T/C (second compound 1 µM, first compound 0.1 µM) was 86.4%. The viability, T/C (second compound 3.16 µM, first compound 0.000316 µM) was 93.9%, the viability, T/C (second compound 3.16 µM, first compound 0.001 µM) was 107% and the viability, T/C (second compound 3.16 µM, first compound 0.00316 µM) was 104%. It also gave a viability, T/C (second compound 3.16 µM, first compound 0.01 µM) of 112%, a viability, T/C (second compound 3.16 µM, first compound 0.0316 µM) of 98.6% and a viability, T/C (second compound 3.16 µM, first compound 0.1 µM) of 87.7%. The viability, T/C (second compound 10 µM, first compound 0.000316 µM) was 92.8%, the viability, T/C (second compound 10 µM, first compound 0.001 µM) was 114% and the viability, T/C (second compound 10 µM, first compound 0.00316 µM) was 99.1%. The viability, T/C (second compound 10 µM, first compound 0.01 µM) was 95.3%, the viability, T/C (second compound 10 µM, first compound 0.0316 µM) was 110% and the viability, T/C (second compound 10 µM, first compound 0.1 µM) was 88.5%.
